In US20080242661A1, “Novel compounds useful for the treatment of degenerative & inflammatory diseases” (priority 2006, published 2008):

biological target: purified PDE1A enzyme (Homo sapiens, UniProt P54750); experiment: In vitro PDE1A assay, dose response (Biomol Cyclic Nucleotide Phosphodiesterase Assay Kit, colorimetric); type: biochemical; conditions: 100 μM cAMP, 45 min at 37° C., 8 points from 20 μM, duplicate
Method in brief: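 Purified PDE1A with 100 μM cAMP and 5′-nucleotidase, incubated 45 min at 37° C in Tris 20 mM pH 7.4 with calmodulin, MgCl2 and CaCl2; released phosphate read by malachite-green absorbance at 615 nm. Duplicate 8-point ⅓ dilutions from 20 μM in 1% DMSO; 10 μM vardenafil defines 100% inhibition.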

Structure (SMILES) | IC50 [µM]
CCCc1nn(C)c2c(=O)[nH]c(N(C)Cc3csc(-c4ccc(C(F)(F)F)cc4)n3)nc12 [Example 39, 1-methyl-5-(methyl((2-(4-(trifluoromethyl)phenyl)thiazol-4-yl)methyl)amino)-3-propyl-1H-pyrazolo[4,3-d]pyrimidin-7(6H)-one] | 0.101 to 0.5
CCCc1nn(C)c2c(=O)[nH]c(Nc3ccc4[nH]ncc4c3)nc12 [Example 7, 5-(1H-indazol-5-ylamino)-1-methyl-3-propyl-1H-pyrazolo[4,3-d]pyrimidin-7(6H)-one] | > 0.5
CCCc1nn(C)c2c(=O)[nH]c(N(C)Cc3ccc(F)cc3)nc12 [Example 21, 5-((4-fluorobenzyl)(methyl)amino)-1-methyl-3-propyl-1H-pyrazolo[4,3-d]pyrimidin-7(6H)-one] | < 0.1
CCCc1nn(C)c2c(=O)[nH]c(N(C)Cc3cccc(Cl)c3)nc12 [Example 15, 5-((3-chlorobenzyl)(methyl)amino)-1-methyl-3-propyl-1H-pyrazolo[4,3-d]pyrimidin-7(6H)-one] | 0.101 to 0.5
CCCc1nn(C)c2c(=O)[nH]c(N(C)Cc3cccc(C(F)(F)F)c3)nc12 [Example 5, 1-methyl-5-(methyl(3-(trifluoromethyl)benzyl)amino)-3-propyl-1H-pyrazolo[4,3-d]pyrimidin-7(6H)-one] | 0.101 to 0.5
CCCc1nn(C)c2c(=O)[nH]c(N(C)CCc3ccccc3)nc12 [Example 22, 1-methyl-5-(methyl(phenethyl)amino)-3-propyl-1H-pyrazolo[4,3-d]pyrimidin-7(6H)-one] | 0.101 to 0.5
CCCc1nn(C)c2c(=O)[nH]c(N(C)CCc3ccc(OC)c(OC)c3)nc12 [Example 20, 5-((3,4-dimethoxyphenethyl)(methyl)amino)-1-methyl-3-propyl-1H-pyrazolo[4,3-d]pyrimidin-7(6H)-one] | > 0.5
CCCc1nn(C)c2c(=O)[nH]c(N(C)Cc3ccc(Cl)c(Cl)c3)nc12 [Example 2, 5-((3,4-dichlorobenzyl)(methyl)amino)-1-methyl-3-propyl-1H-pyrazolo[4,3-d]pyrimidin-7(6H)-one] | < 0.1
CCCc1nn(C)c2c(=O)[nH]c(N(C)Cc3cc4cccnc4s3)nc12 [Example 36, 1-methyl-5-(methyl(thieno[2,3-b]pyridin-2-ylmethyl)amino)-3-propyl-1H-pyrazolo[4,3-d]pyrimidin-7(6H)-one] | 0.101 to 0.5
CCCc1nn(C)c2c(=O)[nH]c(N(C)Cc3cccc4ccccc34)nc12 [Example 58, 1-methyl-5-(methyl(naphthalen-1-ylmethyl)amino)-3-propyl-1H-pyrazolo[4,3-d]pyrimidin-7(6H)-one] | > 0.5
CCCc1nn(C)c2c(=O)[nH]c(N(C)Cc3ccc(-c4ccncc4)cc3)nc12 [Example 40, 1-methyl-5-(methyl(4-(pyridin-4-yl)benzyl)amino)-3-propyl-1H-pyrazolo[4,3-d]pyrimidin-7(6H)-one] | < 0.1
CCCc1nn(C)c2c(=O)[nH]c(N(C)Cc3ccc(OCCN4CCOCC4)cc3)nc12 [Example 49, 1-methyl-5-(methyl(4-(2-morpholinoethoxy)benzyl)amino)-3-propyl-1H-pyrazolo[4,3-d]pyrimidin-7(6H)-one] | 0.101 to 0.5
CCCc1nn(C)c2c(=O)[nH]c(N3CCc4cc(OC)c(OC)cc4C3C)nc12 (stereo not drawn) [Example 37, 5-(6,7-dimethoxy-1-methyl-3,4-dihydroisoquinolin-2(1H)-yl)-1-methyl-3-propyl-1H-pyrazolo[4,3-d]pyrimidin-7(6H)-one] | 0.101 to 0.5
CCCc1nn(C)c2c(=O)[nH]c(N(C)Cc3cccc(N4CCOCC4)n3)nc12 [Example 42, 1-methyl-5-(methyl((6-morpholinopyridin-2-yl)methyl)amino)-3-propyl-1H-pyrazolo[4,3-d]pyrimidin-7(6H)-one] | 0.101 to 0.5
CCCc1nn(C)c2c(=O)[nH]c(N3CCc4ccccc4C3)nc12 [Example 8, 5-(3,4-dihydroisoquinolin-2(1H)-yl)-1-methyl-3-propyl-1H-pyrazolo[4,3-d]pyrimidin-7(6H)-one] | 0.101 to 0.5
CCCc1nn(C)c2c(=O)[nH]c(NCc3cccc(F)c3)nc12 [Example 18, 5-(3-fluorobenzylamino)-1-methyl-3-propyl-1H-pyrazolo[4,3-d]pyrimidin-7(6H)-one] | > 0.5
CCCc1nn(C)c2c(=O)[nH]c(N(Cc3ccccc3)C(C)C)nc12 [Example 28, 5-(benzyl(isopropyl)amino)-1-methyl-3-propyl-1H-pyrazolo[4,3-d]pyrimidin-7(6H)-one] | 0.101 to 0.5
CCCc1nn(C)c2c(=O)[nH]c(N(C)Cc3cccc(-c4ccncc4)c3)nc12 [Example 43, 1-methyl-5-(methyl(3-(pyridin-4-yl)benzyl)amino)-3-propyl-1H-pyrazolo[4,3-d]pyrimidin-7(6H)-one] | < 0.1
CCCc1nn(C)c2c(=O)[nH]c(N(C)Cc3sc(-c4ccccc4)nc3C)nc12 [Example 47, 1-methyl-5-(methyl((4-methyl-2-phenylthiazol-5-yl)methyl)amino)-3-propyl-1H-pyrazolo[4,3-d]pyrimidin-7(6H)-one] | < 0.1

Now from value to compound:

IC50 [µM] | Structure (SMILES)
< 0.1 | CCCc1nn(C)c2c(=O)[nH]c(NCc3sc(-c4ccccc4)nc3C)nc12 [Example 72, 1-methyl-5-((4-methyl-2-phenylthiazol-5-yl)methylamino)-3-propyl-1H-pyrazolo[4,3-d]pyrimidin-7(6H)-one]
< 0.1 | CC(C)CN(Cc1cccc(-n2cccc2)c1)c1nc2c(C(C)(C)C)nn(C)c2c(=O)[nH]1 [Example 100]
0.101 to 0.5 | CCCc1nn(C)c2c(=O)[nH]c(NCc3nnc4ccccn34)nc12 [Example 83, 5-([1,2,4]triazolo[4,3-a]pyridin-3-ylmethylamino)-1-methyl-3-propyl-1H-pyrazolo[4,3-d]pyrimidin-7(6H)-one]
< 0.1 | CN1CCN(c2cccc(CNc3nc4c(C(C)(C)C)nn(C)c4c(=O)[nH]3)c2)CC1 [Example 92, 3-tert-butyl-1-methyl-5-(3-(4-methylpiperazin-1-yl)benzylamino)-1H-pyrazolo[4,3-d]pyrimidin-7(6H)-one]
< 0.1 | Cn1nc(C2CCCC2)c2nc(N3CCCC3c3ccccc3)[nH]c(=O)c21 (stereo not drawn) [Example 86, 3-cyclopentyl-1-methyl-5-(2-phenylpyrrolidin-1-yl)-1H-pyrazolo[4,3-d]pyrimidin-7(6H)-one]
< 0.1 | CCC(CC)CN(Cc1cccc(-n2cccn2)c1)c1nc2c(C(C)(C)C)nn(C)c2c(=O)[nH]1 [Example 121]
> 0.5 | CCCc1nn(C)c2c(=O)[nH]c(NCc3ccc(S(N)(=O)=O)cc3)nc12 [Example 120, 4-((1-methyl-7-oxo-3-propyl-6,7-dihydro-1H-pyrazolo[4,3-d]pyrimidin-5-ylamino)methyl)benzenesulfonamide]
< 0.1 | CCCc1nn(C)c2c(=O)[nH]c(N(CCC(C)(C)C)Cc3cccc(N4CCOCC4)c3)nc12 [Example 108, 5-((3,3-dimethylbutyl)(3-morpholinobenzyl)amino)-1-methyl-3-propyl-1H-pyrazolo[4,3-d]pyrimidin-7(6H)-one]
> 0.5 | CCCc1nn(C)c2c(=O)[nH]c(NCCc3ccc(OCC)c(OCC)c3)nc12 [Example 82, 5-(3,4-diethoxyphenethylamino)-1-methyl-3-propyl-1H-pyrazolo[4,3-d]pyrimidin-7(6H)-one]
< 0.1 | Cc1nc(-c2ccccc2)sc1CN(C)c1nc2c(C(C)(C)C)nn(C)c2c(=O)[nH]1 [Example 80, 3-tert-butyl-1-methyl-5-(methyl((4-methyl-2-phenylthiazol-5-yl)methyl)amino)-1H-pyrazolo[4,3-d]pyrimidin-7(6H)-one]
< 0.1 | CCCc1nn(C)c2c(=O)[nH]c(N(Cc3cccc(N4CCOCC4)c3)CC(C)C)nc12 [Example 74, 5-(isobutyl(3-morpholinobenzyl)amino)-1-methyl-3-propyl-1H-pyrazolo[4,3-d]pyrimidin-7(6H)-one]
< 0.1 | CCCc1nn(C)c2c(=O)[nH]c(N(Cc3cccc(-n4cncn4)c3)CC(C)C)nc12 [Example 96]
< 0.1 | CCCc1nn(C)c2c(=O)[nH]c(N(CCC(C)C)Cc3cccc(-n4cccn4)c3)nc12 [Example 106]
0.101 to 0.5 | CCCc1nn(C)c2c(=O)[nH]c(NCc3c(C)nn(Cc4ccccc4)c3C)nc12 [Example 91, 5-((1-benzyl-3,5-dimethyl-1H-pyrazol-4-yl)methylamino)-1-methyl-3-propyl-1H-pyrazolo[4,3-d]pyrimidin-7(6H)-one]
< 0.1 | CC(C)CN(Cc1ccc(F)cc1)c1nc2c(C(C)(C)C)nn(C)c2c(=O)[nH]1 [Example 97, 3-tert-butyl-5-((4-fluorobenzyl)(isobutyl)amino)-1-methyl-1H-pyrazolo[4,3-d]pyrimidin-7(6H)-one]
0.101 to 0.5 | CCCc1nn(C)c2c(=O)[nH]c(NCc3cccc(-n4cccn4)c3)nc12 [Example 63]
< 0.1 | CCCC(C)CN(Cc1cccc(N2CCOCC2)c1)c1nc2c(C(C)(C)C)nn(C)c2c(=O)[nH]1 (stereo not drawn) [Example 104, 3-tert-butyl-1-methyl-5-((2-methylpentyl)(3-morpholinobenzyl)amino)-1H-pyrazolo[4,3-d]pyrimidin-7(6H)-one]
